The text below walks through data of patent publication US20260273081A1, “INHIBITORS OF ETS2-ACTIVATING MOLECULES FOR THE TREATMENT OF INFLAMMATORY DISEASES” (The Francis Crick Institute Limited, priority 2023, published 2026).

For series [1], the system named is inflammatory macrophages (TPP). Briefly: MEK inhibitor (PD-0325901) testing in inflammatory macrophages (TPP), RNA-seq and fGSEA. Format: cell-based, human. As for the experimental part:
Leukocyte cones from healthy donors were obtained from NHS Blood and Transplant (Cambridge Blood Donor Centre, Colindale Blood Centre, or Tooting Blood Donor Centre). Peripheral blood mononuclear cells (PBMCs) were isolated by density centrifugation (Histopaque 1077, Sigma) and monocytes were positively selected using CD14 Microbeads (Miltenyi Biotec). Macrophage differentiation was performed using conditions that model chronic inflammation (TPP): 3 days GM-CSF (50 ng/ml, Peprotech) followed by 3 days GM-CSF, TNFα (50 ng/ml, Peprotech), PGE2 (1 μg/ml, Sigma Aldrich), and […] (1 μg/ml, Invivogen). […]
RNA was isolated from macrophage lysates (AllPrep DNA/RNA Micro Kit, Qiagen) and sequencing libraries prepared from 10 ng RNA using the SMARTer Stranded Total RNA-Seq Kit v2-Pico Input Mammalian (Takara) following the manufacturer's instructions. Libraries were sequenced on a NextSeq2000 (50 bp, PE reads: CRISPR-based loss-of-function, roxadustat and PD-0325901 experiments) or a NovaSeq6000 (100 bp, PE reads: overexpression experiments). Reads were trimmed using Trim Galore (Phred score 24), filtered to remove reads <20 bp, and ribosomal reads were removed using the BBSplit function of BBMap (BBMap, sourceforge.net/projects/bbmap/) with the Human ribosomal DNA complete repeating unit (GenBank: U13369.1). […]

The test system of series [2] is intestinal mucosal biopsies from patients with active IBD. Briefly: Human gut explant model: IBD intestinal mucosal biopsies cultured on transwell insert. The note with it: 18 hours culture; for release of IBD-associated inflammatory cytokines from biopsies: PD-0325901 0.5 μM or infliximab 10 µg/ml, vs DMSO, n=10. Format: cell-based. As for the experimental part:
During colonoscopy, intestinal mucosal biopsies (6 per donor) were collected from 10 IBD patients (7 ulcerative colitis, 3 Crohn's disease). All had endoscopically active disease and were not receiving immunosuppressive or biologic therapies. All biopsies were collected from a single inflamed site. All patients provided written informed consent. Ethical approval was provided by the London-Brent Regional Ethics Committee (REC: 21/LO/0682). Biopsies were collected into Opti-MEM and within 1 hour were weighed and placed in pairs onto a transwell insert (ThermoFisher)—designed to create an air-liquid interface70—in a 24-well plate. Each well contained 1 ml media and was supplemented with either DMSO (vehicle control), PD-0325901 (0.5 μM) or infliximab ([…]; MSD). Media: Opti-MEM I (Gibco); GlutaMAX (ThermoFisher): 10% FBS (ThermoFisher), MEM Non-Essential Amino Acids (ThermoFisher); 1% sodium pyruvate (ThermoFisher); 1% penicillin/streptomycin (ThermoFisher); 500 µg/ml gentamicin (Merck). After 18 hours, supernatants and biopsies were snap frozen. Supernatant cytokine concentrations were quantified using LEGENDplex Human Inflammation Panel (Biolegend). RNA was extracted from biopsies and libraries prepared as described earlier (n=9, RNA from one donor was too degraded). Sequencing was performed on a NovaSeq 6000 (100 bp, PE reads). Data were processed as described earlier and GSVA was performed for ETS2-regulated genes and biopsy-derived signatures of IBD-associated inflammation.

A further series deals with macrophages. Kind of series: Viability and myeloid markers of macrophages after nucleofection with Cas9 RNPs and TPP differentiation. The settings on record: TPP differentiation. It is filed as cell-based, human. As for the experimental part:
(§1) gRNA sequences were designed using CRISPick (formerly GPP sgRNA Designer) and synthesised by IDT. gRNA sequences: chr21q22 5′ gRNA, […]; chr21q22 3′ gRNA, […]; ETS2 gRNA1, […]; ETS2 gRNA2, […]. Alt-R CRISPR-Cas9 Negative Control crRNA #1 (IDT) was used as a non-targeting control. Cas9-gRNA ribonucleoproteins were assembled as described previously and nucleofected into 5×10^6 monocytes in 100 μL nucleofection buffer (Human Monocyte Nucleofection Kit, Lonza) using a Nucleofector 2b (Lonza, program Y-001). After nucleofection, monocytes were immediately transferred into 5 ml of pre-warmed culture media in a 6-well flat-bottomed plate, and differentiated into macrophages under TPP conditions. Editing efficiency was quantified by PCR amplification of the target region in extracted DNA (chr21q22_Fw primer, […]; chr21q22_Rv, […]; ETS2_g1_Fw, […]; ETS2_g1_Rv, […]; ETS2_g2_Fw, […]; ETS2_g2_Rv, […]). Editing efficiency at the chr21q22 locus was measured via quantification of amplified fragments (2100 Bioanalyzer, Agilent) as previously described. Editing efficiency for individual gRNAs was assessed using the Inference of CRISPR Edits tool (ICE, Synthego).
Expression of myeloid markers was assessed by flow cytometry (BD LSRFortessaTMX-20). […] Data were analysed using FlowJo v10 (BD Biosciences).

A further series deals with ETS2. Briefly: CRISPR-Cas9 editing efficiency at the ETS2 locus in primary monocytes. It is filed as cell-based, human. The settings on record: Cas9 RNPs nucleofected into primary monocytes; ICE analysis. As for the experimental part:
as §1

As for `O=C(NOC[C@H](O)CO)c1ccc(F)c(F)c1Nc1ccc(I)cc1F` [PD-0325901], the “anti-inflammatory activity (relative expression of chr21q22-regulated genes), phenocopying ETS2 disruption or chr21q22 enhancer deletion” value in series [1] (PD-0325901 0.5 μM added day 4, harvested day 6, vs vehicle (DMSO), n=3) is “potent anti-inflammatory activity”. Also, the “inflammatory pathways (fGSEA, Gene Ontology Biological Pathways)” value in series [1] (PD-0325901 0.5 μM, day 4 to day 6, vs vehicle) is on record as “downregulation of multiple inflammatory pathways”. Besides, the “release of IBD-associated inflammatory cytokines from biopsies” value in series [2] is “significantly reduced”. Besides, in series [2] (PD-0325901 0.5 μM, n=9), the “expression of ETS2-regulated genes in IBD biopsies (GSVA)” value was “reduced” and the “validated transcriptional inflammation score (bMIS, GSVA)” value is “significant improvement”.
With “gRNA1: ETS2 guide RNA, CAGACACAGAAUUACCCCAA, delivered as Cas9 RNP (delivered as Cas9 ribonucleoprotein complex, further chemistry not given here)”, in the series with macrophages, the “viability of macrophages following nucleofection with Cas9 RNPs and differentiation, mean” value was determined as 98.3%. Also, the “editing efficiency at the ETS2 locus, mean indel rate” value in the series with ETS2 is recorded as 89.7%.
Take “gRNA2: ETS2 guide RNA, UUGCUGCACGGGGUUAACAA, delivered as Cas9 RNP (delivered as Cas9 ribonucleoprotein complex, further chemistry not given here)”: in the series on macrophages, the “viability of macrophages following nucleofection with Cas9 RNPs and differentiation, mean” value amounted to 98.6%. Also, the “editing efficiency at the ETS2 locus, mean indel rate” value in the series on ETS2 came to 78.6%.
Take infliximab: the “release of IBD-associated inflammatory cytokines from biopsies” value in series [2] is “comparable levels”.
